One block for each molecule: values may come before it.
Legend:
[1] = tested on: C2C12 murine skeletal muscle myoblasts; assay: diameter of C2C12 myotubes (anti-desmin labelling); format: cell-based; conditions: for mean diameter size of myotubes: C2C12 myotubes, urolithin B 15 μM 24 h, TNF-alpha 10 ng/mL 4 h, leucine 5 mM
Description: The inventors selected C2C12 murine skeletal muscle myoblasts for measuring the effect of polyphenols on muscle metabolism, especially when submitted to inflammatory stress (e.g. upon TNF-alpha exposure). In these conditions, anabolism is blocked.
C2C12 myoblasts were differentiated for 4 days using 1% horse serum and 1% penicillin/streptomycin. The cells were thereafter grown for 24 h either with the same differentiation medium or with the differentiation medium supplemented with 15 μM urolithin B (conditions 5-8 of FIGS. 2-4 and of Table 1). Then the cells were grown either with the same differentiation medium or in the differentiation medium supplemented with 10 ng/mL TNF-alpha for 4 h (conditions 3-4 and 7-8 of FIGS. 2-4 and of Table 1). Thereafter, the cells were grown either with the same differentiation medium or in the differentiation medium supplemented with 5 mM leucine (conditions 2, 4, 6 and 8 of FIGS. 2-4 and of Table 1). The myotubes were labelled using anti-desmin antibodies, and nuclei labelling by Hoechst staining. Urolithin B consistently stimulates the diameter of myotubes.

mTOR = mTOR phosphorylation; format: cell-based
From the text: The inventors then have measured mTOR phosphorylation again to reflect protein synthesis and have observed a marginal leucine-induced phosphorylation and a strong urolithin B-induced phosphorylation.

C2C12 myoblasts = assay: toxicity of urolithin B addition; format: cell-based, murine; conditions: concentrations of up to 40 μM
Description: The inventors have firstly measured if the addition of urolithin B presents some toxicity, but no toxicity was measured for concentrations of up to 40 μM.

Akt = Akt phosphorylation; format: cell-based
From the text: (§1) The inventors then have measured Akt and PRAS40 phosphorylation still to analyse possible metabolism pathways. However, besides a tendency of synergy between the leucine and urolithin B addition, no major difference in phosphorylation patterns were observed.

PRAS40 = PRAS40 phosphorylation; format: cell-based
From the text: as §1

AMPK = AMPK phosphorylation; format: cell-based
androgen receptor = androgen receptor agonism (concluded from bicalutamide blockade); format: cell-based
From the text: Finally, the inventors have measured the effect of rapamycin, on another mTOR inhibitor and of the anti-androgen bicalutamide (FIGS. 5-6 show the effect on the size of the muscular fibres) on the urolithin B-induced effects (including on the phosphorylation on mTOR, of AMPK, . . . ) and conclude that urolithin B acts upon binding and activating the androgen receptor, then by releasing the AMPK-inhibition on mTOR, increases protein synthesis in muscle cells, then the diameter of muscle fibres.

denervated muscle = assay: weight loss of denervated muscle, intravenous; format: in vivo; conditions: mammal
[2] = compared with urolithins A, C and D and whole polyphenol extract; cited from earlier work
[3] = human patients fed with pomegranate extract; compared with urolithin A; cited from earlier work
[4] = tested on: breast and on prostate cancer cell lines; conditions: cited from earlier work
P70S6k = P70S6k phosphorylation; format: cell-based

Molecule: CC(C)C[C@H](N)C(=O)O [Leucine, leucine]
mean diameter size of myotubes [1]: 25.5
mTOR phosphorylation (mTOR): marginal

Molecule: O=c1oc2cc(O)ccc2c2ccccc12 [urolithin B]
mean diameter size of myotubes [1]: 32.6
size of myotubes ([1]; urolithin B at 15 μM): significantly increased
toxicity (C2C12 myoblasts): no toxicity
mTOR phosphorylation (mTOR): strong
Akt phosphorylation (Akt): does not induce
PRAS40 phosphorylation (PRAS40): does not induce
AMPK phosphorylation (AMPK): strong reduction
androgen-receptor agonist (androgen receptor): agonist
weight loss of denervated muscle (denervated muscle): prevents
antioxidant and anti-inflammatory properties [2]: much weaker
amount in the blood [3]: much lower
anti cancer activity [4]: direct anti cancer activity

Molecule: TNFa
mean diameter size of myotubes [1]: 16.7

androgen-receptor agonist (androgen receptor): not
Molecule: O=c1oc2cc(O)ccc2c2ccc(O)cc12 [urolithin A, reference compound]
size of myotubes ([1]; up to 10 μM urolithin A, vs control): does not increase
induction of P70S6k phosphorylation (P70S6k): almost no induction
anti cancer activity [4]: direct anti cancer activity
